Data: publication PMC9403976, “Elucidating the path to Plasmodium prolyl-tRNA synthetase inhibitors that overcome halofuginone resistance” (Nature Communications, 2022)
Values joined by “and” are separate entries in the source; they are usually repeats but may differ in a detail not shown here. Equal entries are not always repeated. Where two headings read alike, the source gives them in different places.

Assays:
PfcProRS = molecular target: T1, PfcProRS (Plasmodium falciparum, UniProt Q8I5R7); type: binding; conditions: single replicates
T1 construct: made in house; host or cells: E. coli SoluBL-21

HsProRS = HsProRS (Homo sapiens, UniProt P07814); test: TR-FRET ligand displacement assay with tracer MAT379 (CoraFluor-1-Halo and anti-His6 antibody formats); type: binding; set-up: made in house; host or cells: E. coli SoluBL-21; conditions: for TR-FRET dose-response, normalized signal (SI Fig 11): individual replicates
P. falciparum Dd2-2D4 = test: P. falciparum asexual blood stage (ABS) growth assay, SYBR Green, 72 h, wild-type parasites; type: cell-based, Plasmodium falciparum; conditions: Plasmodium falciparum, DD2; SI Fig 16b; values on -log scale; read-out: ABS - Dd2-2D4 (converted)

HsProRS, sequence (P07814 996-1512): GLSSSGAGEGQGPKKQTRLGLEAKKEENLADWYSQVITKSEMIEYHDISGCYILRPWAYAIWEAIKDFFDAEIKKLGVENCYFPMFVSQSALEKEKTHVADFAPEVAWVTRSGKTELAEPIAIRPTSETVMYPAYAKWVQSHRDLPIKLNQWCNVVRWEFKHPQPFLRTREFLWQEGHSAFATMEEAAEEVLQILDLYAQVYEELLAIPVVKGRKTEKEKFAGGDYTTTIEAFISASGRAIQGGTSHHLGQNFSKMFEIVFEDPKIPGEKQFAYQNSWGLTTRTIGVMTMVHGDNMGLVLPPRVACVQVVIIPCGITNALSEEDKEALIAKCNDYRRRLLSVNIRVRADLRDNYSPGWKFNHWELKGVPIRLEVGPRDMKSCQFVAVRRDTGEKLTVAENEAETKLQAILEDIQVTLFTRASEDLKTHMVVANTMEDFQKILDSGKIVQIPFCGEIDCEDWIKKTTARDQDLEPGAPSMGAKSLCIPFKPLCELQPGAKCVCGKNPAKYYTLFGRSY
T1 sequence (Q8I5R7 249-746): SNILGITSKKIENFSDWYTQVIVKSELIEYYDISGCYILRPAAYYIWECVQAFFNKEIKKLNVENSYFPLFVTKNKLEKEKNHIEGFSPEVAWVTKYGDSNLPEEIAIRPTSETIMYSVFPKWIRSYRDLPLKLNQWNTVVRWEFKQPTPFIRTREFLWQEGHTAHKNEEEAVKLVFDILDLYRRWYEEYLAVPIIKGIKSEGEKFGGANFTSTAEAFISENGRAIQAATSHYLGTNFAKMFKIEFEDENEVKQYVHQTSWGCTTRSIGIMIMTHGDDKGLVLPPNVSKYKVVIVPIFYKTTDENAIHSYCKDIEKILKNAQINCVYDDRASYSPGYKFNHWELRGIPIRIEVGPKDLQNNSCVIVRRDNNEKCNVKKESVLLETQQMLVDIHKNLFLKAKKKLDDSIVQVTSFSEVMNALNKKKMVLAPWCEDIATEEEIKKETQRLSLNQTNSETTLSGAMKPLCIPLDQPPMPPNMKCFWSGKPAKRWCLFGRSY

CC(C)(C)OC(=O)N1CCN(C(=O)Nc2nccnc2C(=O)NC2Cc3ccccc3C2)CC1 [compound 13]
dose-response signal (normalized), SI Fig 8 (PfcProRS; Log[inhibitor] (M) -5.000): 6.57E-01 and 6.36E-01 and 6.64E-01
dose-response signal (normalized), SI Fig 8 (PfcProRS; Log[inhibitor] (M) -5.301): 8.73E-01 and 7.48E-01 and 7.96E-01
dose-response signal (normalized), SI Fig 8 (PfcProRS; Log[inhibitor] (M) -5.601): 9.97E-01 and 9.02E-01 and 8.50E-01
dose-response signal (normalized), SI Fig 8 (PfcProRS; Log[inhibitor] (M) -5.904): 9.78E-01 and 1.07E+00 and 1.00E+00
dose-response signal (normalized), SI Fig 8 (PfcProRS; Log[inhibitor] (M) -6.208): 1.06E+00 (2×) and 9.45E-01
dose-response signal (normalized), SI Fig 8 (PfcProRS; Log[inhibitor] (M) -6.509): 1.17E+00 and 1.01E+00 and 1.09E+00
dose-response signal (normalized), SI Fig 8 (PfcProRS; Log[inhibitor] (M) -6.796): 1.13E+00 and 1.01E+00 and 1.17E+00
dose-response signal (normalized), SI Fig 8 (PfcProRS; Log[inhibitor] (M) -7.108): 1.04E+00 and 9.91E-01 and 1.15E+00
dose-response signal (normalized), SI Fig 8 (PfcProRS; Log[inhibitor] (M) -7.409): 1.05E+00 and 1.06E+00 and 1.03E+00
dose-response signal (normalized), SI Fig 8 (PfcProRS; Log[inhibitor] (M) -7.710): 1.04E+00 and 9.80E-01 and 9.98E-01
dose-response signal (normalized), SI Fig 8 (PfcProRS; Log[inhibitor] (M) -8.000): 1.08E+00 and 9.50E-01 and 1.05E+00
dose-response signal (normalized), SI Fig 8 (PfcProRS; Log[inhibitor] (M) -8.301): 1.02E+00 and 1.08E+00 and 1.09E+00
dose-response signal (normalized), SI Fig 8 (PfcProRS; Log[inhibitor] (M) -8.602): 9.84E-01 and 9.74E-01 and 9.67E-01
dose-response signal (normalized), SI Fig 8 (PfcProRS; Log[inhibitor] (M) -9.000): 1.06E+00 and 9.60E-01 and 9.76E-01
dose-response signal (normalized), SI Fig 8 (PfcProRS; Log[inhibitor] (M) -9.301): 1.07E+00 and 9.33E-01 and 9.62E-01
IC50 (HsProRS): > 10 µM
HsProRS % signal at 10 μM, + 100 μM proline (HsProRS; + 100 μM proline, 10 μM): 52.2%
normalized TR-FRET ligand displacement signal, dose-response replicates (SI Fig 6) (HsProRS; Log[inhibitor] (M) -5.000): 5.04E-01 and 5.72E-01 and 5.31E-01
TR-FRET dose-response, normalized signal (SI Fig 11) (HsProRS; Log[inhibitor] (M) -5.000): 5.54E-01 and 6.12E-01 and 6.15E-01
normalized TR-FRET ligand displacement signal, dose-response replicates (SI Fig 6) (HsProRS; Log[inhibitor] (M) -5.301): 6.63E-01 and 7.73E-01 and 7.12E-01
TR-FRET dose-response, normalized signal (SI Fig 11) (HsProRS; Log[inhibitor] (M) -5.301): 7.87E-01 and 7.25E-01 and 6.74E-01
normalized TR-FRET ligand displacement signal, dose-response replicates (SI Fig 6) (HsProRS; Log[inhibitor] (M) -5.601): 9.43E-01 and 7.95E-01 and 9.57E-01
TR-FRET dose-response, normalized signal (SI Fig 11) (HsProRS; Log[inhibitor] (M) -5.601): 8.12E-01 and 8.26E-01 and 8.38E-01
normalized TR-FRET ligand displacement signal, dose-response replicates (SI Fig 6) (HsProRS; Log[inhibitor] (M) -5.904): 9.95E-01 and 9.88E-01 and 9.03E-01
TR-FRET dose-response, normalized signal (SI Fig 11) (HsProRS; Log[inhibitor] (M) -5.904): 8.50E-01 and 8.61E-01 and 8.43E-01
normalized TR-FRET ligand displacement signal, dose-response replicates (SI Fig 6) (HsProRS; Log[inhibitor] (M) -6.208): 1.02E+00 and 9.02E-01 and 9.17E-01
TR-FRET dose-response, normalized signal (SI Fig 11) (HsProRS; Log[inhibitor] (M) -6.208): 9.15E-01 and 9.28E-01 and 8.71E-01
normalized TR-FRET ligand displacement signal, dose-response replicates (SI Fig 6) (HsProRS; Log[inhibitor] (M) -6.509): 9.58E-01 and 9.37E-01 and 9.28E-01
TR-FRET dose-response, normalized signal (SI Fig 11) (HsProRS; Log[inhibitor] (M) -6.509): 9.05E-01 and 9.50E-01 and 9.14E-01
normalized TR-FRET ligand displacement signal, dose-response replicates (SI Fig 6) (HsProRS; Log[inhibitor] (M) -6.796): 1.05E+00 (2×) and 9.53E-01
TR-FRET dose-response, normalized signal (SI Fig 11) (HsProRS; Log[inhibitor] (M) -6.796): 9.07E-01 and 9.30E-01 and 8.71E-01
normalized TR-FRET ligand displacement signal, dose-response replicates (SI Fig 6) (HsProRS; Log[inhibitor] (M) -7.108): 1.05E+00 and 1.10E+00 and 9.73E-01
TR-FRET dose-response, normalized signal (SI Fig 11) (HsProRS; Log[inhibitor] (M) -7.108): 9.13E-01 and 9.30E-01 and 9.12E-01
normalized TR-FRET ligand displacement signal, dose-response replicates (SI Fig 6) (HsProRS; Log[inhibitor] (M) -7.409): 1.03E+00 and 1.01E+00 (2×)
TR-FRET dose-response, normalized signal (SI Fig 11) (HsProRS; Log[inhibitor] (M) -7.409): 9.32E-01 and 9.37E-01 and 8.25E-01
normalized TR-FRET ligand displacement signal, dose-response replicates (SI Fig 6) (HsProRS; Log[inhibitor] (M) -7.710): 9.23E-01 (2×) and 9.87E-01
TR-FRET dose-response, normalized signal (SI Fig 11) (HsProRS; Log[inhibitor] (M) -7.710): 9.18E-01 and 8.75E-01 and 8.91E-01
normalized TR-FRET ligand displacement signal, dose-response replicates (SI Fig 6) (HsProRS; Log[inhibitor] (M) -8.000): 9.04E-01 and 9.35E-01 and 9.98E-01
TR-FRET dose-response, normalized signal (SI Fig 11) (HsProRS; Log[inhibitor] (M) -8.000): 9.32E-01 and 9.16E-01 and 8.80E-01
normalized TR-FRET ligand displacement signal, dose-response replicates (SI Fig 6) (HsProRS; Log[inhibitor] (M) -8.301): 9.80E-01 and 9.08E-01 and 1.02E+00
TR-FRET dose-response, normalized signal (SI Fig 11) (HsProRS; Log[inhibitor] (M) -8.301): 8.80E-01 and 9.57E-01 and 9.53E-01
normalized TR-FRET ligand displacement signal, dose-response replicates (SI Fig 6) (HsProRS; Log[inhibitor] (M) -8.602): 9.80E-01 and 9.47E-01 and 9.05E-01
TR-FRET dose-response, normalized signal (SI Fig 11) (HsProRS; Log[inhibitor] (M) -8.602): 9.10E-01 and 9.58E-01 and 9.24E-01
normalized TR-FRET ligand displacement signal, dose-response replicates (SI Fig 6) (HsProRS; Log[inhibitor] (M) -9.000): 9.78E-01 and 9.57E-01 and 9.87E-01
TR-FRET dose-response, normalized signal (SI Fig 11) (HsProRS; Log[inhibitor] (M) -9.000): 9.07E-01 and 8.93E-01 and 8.97E-01
normalized TR-FRET ligand displacement signal, dose-response replicates (SI Fig 6) (HsProRS; Log[inhibitor] (M) -9.301): 9.45E-01 and 8.63E-01 and 9.67E-01
TR-FRET dose-response, normalized signal (SI Fig 11) (HsProRS; Log[inhibitor] (M) -9.301): 9.11E-01 and 8.69E-01 and 9.61E-01
HsProRS % signal at 10 μM (HsProRS; no added proline/ATP (-), 10 μM): 59.4%
IC50 (HsProRS; read-out: HsProRS IC50 + 100 μM proline, + 100 μM proline): > 10 µM

O=C(NC1Cc2ccccc2C1)c1nccnc1NC(=O)C1(O)CCCCC1 [compound 15]
Kd (HsProRS; HsProRS (KD [nM]) mean, no added proline/ATP (-)): 2700 nM
Kd (HsProRS; HsProRS - best Kd, SI Fig 16a, values on -log scale): 21.8 nM
EC50 (P. falciparum Dd2-2D4): 1.5 µM
